Assay results as given in US6710168B1, “Glycopeptide antibiotics, combinatorial libraries of glycopeptide antibiotics and methods of producing same” (The Trustees of the University of Princeton, priority 1999, dated 2004).
Converted amounts (≈) assume the structure as drawn. Read-outs that look alike come from different tables or passages of the source.

How the values were obtained:
Assay type in all cases: cell-based
[1] = test system: gentamicin, streptmycin, vancomycin resistant Enterococcus faecalis (ATCC 51299); test: microbe, parasite or virus in culture; settings: for MIC VREF: Enterococcus faecalis ATCC51299, vancomycin resistance; for MIC: Enterococcus faecalis, ATCC51299, read-out: MIC VREF
Description: (§1) Evaluation of vancomycin analogs is performed using in vitro susceptibility tests and a time-kill assay. [NCCL Standard, 1993] In susceptibility tests, five strains of bacteria, two of the most important: Staphylococcus aureus and Enterococcus faecalis (both susceptible and resistant strains), and Bacillus cereus are chosen and bacteria viability remaining in each well is evaluated using a colorimetric assay based on the tetrazolium salt 3-(4,5-dimethyl-2-thiazolyl)-2,5-diphenyl-2H tetrazolium bromide (MTT) and minimum inhibitory concentration (MIC) values are determined as μg/mL. [Mosmann, T. (1983); Damour, O., et al. (1992); Mikami, Y., et al. (1994)] This assay gives susceptibility information quickly, efficiently, and clearly.
(§2) All strains [Bacillus cereus (ATCC® 11778), Staphylococcus aureus (ATCC® 29213), Methicillin resistant Staphylococcus aureus (ATCC® 33591), Enterococcus faecalis (ATCC® 29212), and gentamicin, streptmycin, vancomycin resistant Enterococcus faecalis (ATCC® 51299), are purchased from REMEL (Lenexa, Kans.).
(§3) MICs are determined by the microdilution method using 96-well microplates. Samples are suspended with Cation Adjusted (20 to 25 mg of Ca^2+/mL and 10 to […] of Mg^2+) Mueller-Hinton broth (Difco Laboratories, Detroit, Mich.) and are two-fold diluted from 5 μg/mL to […] on microplates (12 step dilution). To each well, which contained 100 μL of cell suspension (10^6 CFU/mL), 100 μL of antibiotic solution is added and the plates are incubated at 37° C. for 24 h. 50 μL of MTT solution (1 mg/mL) is added to each well, then the plates are incubated under the same conditions (incubation time; 30 min for Bacillus cereus, Staphylococcus aureus, and Methicillin resistant Staphylococcus aureus; 2 hours for Enterococcus faecalis and Gentamicin, Streptmycin, Vancomycin Enterococcus faecalis). MTT is a yellow tetrazolium salt that is reduced by mitochondrial enzymes in viable cells to an insoluble blue formazan product. MIC values are evaluated by observing the lowest drug concentration to inhibit bacteria growth.

[2] = test system: Enterococcus faecalis CL5244, VanB; test: MIC susceptibility test; settings: for MIC: read-out: MIC CL5244
Description: as §1, §3

[3] = test system: Enterococcus faecalis (ATCC 29212); test: MIC susceptibility test, microdilution with MTT readout
Description: as §1, §2, §3

[4] = test system: Methicillin resistant Staphylococcus aureus (ATCC 33591); test: as above; settings: for MIC: ATCC 3359 / ATCC 33591 / MRSA, read-out: MIC MRSA
Description: as §1, §2, §3

[5] = test system: Staphylococcus aureus (ATCC 29213); test: as above
Description: as §1, §2, §3

[6] = test system: Bacillus cereus (ATCC 11778); test: as above; settings: for MIC BC: Bacillus ceres ATCC11778; for MIC: Bacillus cereus, ATCC11778, read-out: MIC BC
Description: as §1, §2, §3

[7] = test system: Enterococcus faecium CL5137, VanA; test: MIC susceptibility test; settings: for MIC: read-out: MIC CL5137
[8] = Enterococcus faecalis CL5244, VanB
[9] = Enterococcus faecalis ATCC29212
[10] = Staphylococcus aureus ATCC3359, Methicillin resistance
[11] = Staphylococcus aureus ATCC29213
[12] = Enterococcus faecium CL5137, VanA
[13] = Enterococcus faecalis ATCC29212, read-out: MIC EF
[14] = Staphylococcus aureus ATCC29213, read-out: MIC SA

Structure (SMILES) | MIC VREF [1] [µg/mL] | MIC CL5244 [2, 8] [µg/mL] | MIC EF [3, 9] [µg/mL] | MIC MRSA [4, 10] | MIC SA [5, 11] | MIC BC [6] [µg/mL] | MIC CL5137 [7, 12] | MIC [1] [µg/mL] | MIC ([2]; Enterococcus faecalis) [µg/mL] | MIC ([3]; Enterococcus faecalis, ATCC29212, read-out: MIC EF) [µg/mL] | MIC ([4]; Staphylococcus aureus) [µg/mL] | MIC ([5]; Staphylococcus aureus, ATCC29213, read-out: MIC SA) [µg/mL] | MIC [6] [µg/mL] | MIC ([7]; Enterococcus faecium) [µg/mL] | MIC [2, 8] [µg/mL] | MIC [3, 13] [µg/mL] | MIC [4, 10] [µg/mL] | MIC [5, 14] [µg/mL] | MIC [7, 12] [µg/mL]
CCCCCCCCCCNC1(C)CC(OC2C(Oc3c4cc5cc3Oc3ccc(cc3Cl)C(O)C3NC(=O)C(NC(=O)C5NC(=O)C(CC(N)=O)NC(=O)C(NC(=O)C(CC(C)C)NC)C(O)c5ccc(c(Cl)c5)O4)c4ccc(O)c(c4)-c4c(O)cc(O)cc4C(C(=O)O)NC3=O)OC(CNC(=O)c3cnc4ccccc4n3)C(O)C2O)OC(C)C1O (stereo not shown) [LI, Glucose-C6-N-2-quinoxaloyl-vancosamine-N-decyl Vancomycin] | 1.3 (≈ 0.745 µM) | 0.2 (≈ 0.115 µM) | 0.63 (≈ 0.361 µM) | 5.0< μg/mL | 5.0< μg/mL | 2.5 (≈ 1.43 µM) | 6.3 µg/mL (≈ 3.61 µM) |  |  |  |  |  |  |  |  |  |  |  | 
CN[C@H](CC(C)C)C(=O)N[C@H]1C(=O)N[C@@H](CC(N)=O)C(=O)N[C@H]2C(=O)N[C@H]3C(=O)N[C@H](C(=O)N[C@H](C(=O)O)c4cc(O)cc(O)c4-c4cc3ccc4O)[C@H](O)c3ccc(c(Cl)c3)Oc3cc2cc(c3OC2OC(CNC(=O)c3cnc4ccccc4n3)C(O)C(O)C2OC2CC(C)(NCc3ccc(-c4ccc(Cl)cc4)cc3)C(O)C(C)O2)Oc2ccc(cc2Cl)[C@H]1O (stereo partly shown) [LII, Glucose-C6-N-2-quinoxaloyl-vancosamine-N-4-(4-chlorophenyl)benzyl Vancomycin] |  |  |  |  |  |  |  | 0.16 (≈ 0.0886 µM) | 0.2 (≈ 0.111 µM) | 0.08 (≈ 0.0443 µM) | 5 (≈ 2.77 µM) | 5 (≈ 2.77 µM) | 1.9 (≈ 1.05 µM) | 3.2 (≈ 1.77 µM) |  |  |  |  | 
CNC(CC(C)C)C(=O)NC1C(=O)NC(CC(N)=O)C(=O)NC2C(=O)NC3C(=O)NC(C(=O)NC(C(=O)O)c4cc(O)cc(O)c4-c4cc3ccc4O)C(O)c3ccc(c(Cl)c3)Oc3cc2cc(c3OC2OC(CSc3ccccc3)C(O)C(O)C2OC2CC(C)(N)C(O)C(C)O2)Oc2ccc(cc2Cl)C1O (stereo not shown) [LIV, Glucose-C6-thiophenyl Vancomycin] | 2.5 (≈ 1.62 µM) | 13 (≈ 8.43 µM) | 1.3 (≈ 0.843 µM) | 0.63 µg/mL (≈ 0.409 µM) | 1.0 µg/mL (≈ 0.649 µM) | 1.3 (≈ 0.843 µM) | 50< μg/mL |  |  |  |  |  |  |  |  |  |  |  | 
CN[C@@H](CC(C)C)C(=O)N[C@H]1C(=O)N[C@@H](CC(N)=O)C(=O)N[C@H]2C(=O)NC3C(=O)N[C@H](C(=O)N[C@@H](C(=O)O)c4cc(O)cc(O)c4-c4cc3ccc4O)[C@H](O)c3ccc(c(Cl)c3)Oc3cc2cc(c3OC2OC(CSc3ccc(Br)cc3)C(O)C(O)C2OC2CC(C)(N)C(O)C(C)O2)Oc2ccc(cc2Cl)[C@H]1O (stereo partly shown) [LIX, Glucose-C6-1-thio-4-bromobenzene Vancomycin] |  |  |  |  |  |  |  | 0.32 (≈ 0.197 µM) |  |  |  |  | 1.3 (≈ 0.802 µM) |  | 6.3 (≈ 3.89 µM) | 1 (≈ 0.617 µM) | 1 (≈ 0.617 µM) | 0.63 (≈ 0.389 µM) | > 50
CNC(CC(C)C)C(=O)NC1C(=O)NC(CC(N)=O)C(=O)NC2C(=O)NC3C(=O)NC(C(=O)NC(C(=O)O)c4cc(O)cc(O)c4-c4cc3ccc4O)C(O)c3ccc(c(Cl)c3)Oc3cc2cc(c3OC2OC(CSc3cccc(Cl)c3)C(O)C(O)C2OC2CC(C)(N)C(O)C(C)O2)Oc2ccc(cc2Cl)C1O (stereo not shown) [LV, Glucose-C6-3-chlorothiophenyl Vancomycin] | 0.63 (≈ 0.4 µM) | 3.2 (≈ 2.03 µM) | 0.63 (≈ 0.4 µM) | 0.32 µg/mL (≈ 0.203 µM) | 0.48 µg/mL (≈ 0.305 µM) | 0.63 (≈ 0.4 µM) | 50< μg/mL |  |  |  |  |  |  |  |  |  |  |  | 
CNC(CC(C)C)C(=O)NC1C(=O)NC(CC(N)=O)C(=O)NC2C(=O)NC3C(=O)NC(C(=O)NC(C(=O)O)c4cc(O)cc(O)c4-c4cc3ccc4O)C(O)c3ccc(c(Cl)c3)Oc3cc2cc(c3OC2OC(CSc3nc(N)n[nH]3)C(O)C(O)C2OC2CC(C)(N)C(O)C(C)O2)Oc2ccc(cc2Cl)C1O (stereo not shown) [LVI, Glucose-C6-3-amino-5-mercapto-1,2,4-triazole Vancomycin] | 0.63 (≈ 0.407 µM) | 1.6 (≈ 1.03 µM) | 0.63 (≈ 0.407 µM) | 0.63 µg/mL (≈ 0.407 µM) | 0.48 µg/mL (≈ 0.31 µM) | 1.0 (≈ 0.646 µM) | 50< μg/mL |  |  |  |  |  |  |  |  |  |  |  | 
CNC(CC(C)C)C(=O)NC1C(=O)NC(CC(N)=O)C(=O)NC2C(=O)NC3C(=O)NC(C(=O)NC(C(=O)O)c4cc(O)cc(O)c4-c4cc3ccc4O)C(O)c3ccc(c(Cl)c3)Oc3cc2cc(c3OC2OC(Cn3ccnc3)C(O)C(O)C2OC2CC(C)(N)C(O)C(C)O2)Oc2ccc(cc2Cl)C1O (stereo not shown) [LVII, Glucose-C6-imidazole Vancomycin] | 5.0 (≈ 3.33 µM) | 50 (≈ 33.3 µM) | 2.5 (≈ 1.67 µM) | 1.9 µg/mL (≈ 1.27 µM) | 1.3 µg/mL (≈ 0.867 µM) | 2.5 (≈ 1.67 µM) | 50< μg/mL |  |  |  |  |  |  |  |  |  |  |  | 
CN[C@@H](CC(C)C)C(=O)N[C@H]1C(=O)N[C@@H](CC(N)=O)C(=O)N[C@H]2C(=O)NC3C(=O)N[C@H](C(=O)N[C@@H](C(=O)O)c4cc(O)cc(O)c4-c4cc3ccc4O)[C@H](O)c3ccc(c(Cl)c3)Oc3cc2cc(c3OC2OC(CSc3nnnn3C)C(O)C(O)C2OC2CC(C)(N)C(O)C(C)O2)Oc2ccc(cc2Cl)[C@H]1O (stereo partly shown) [LVIII, Glucose-C6-5-thio-1-methyl-tetrazole Vancomycin] |  |  |  |  |  |  |  | 5 (≈ 3.23 µM) |  |  |  |  | 1.3 (≈ 0.84 µM) |  | 50 (≈ 32.3 µM) | 2.5 (≈ 1.62 µM) | 2.5 (≈ 1.62 µM) | 1.9 (≈ 1.23 µM) | > 50
CN[C@@H](CC(C)C)C(=O)N[C@H]1C(=O)N[C@@H](CC(N)=O)C(=O)N[C@H]2C(=O)NC3C(=O)N[C@H](C(=O)N[C@@H](C(=O)O)c4cc(O)cc(O)c4-c4cc3ccc4O)[C@H](O)c3ccc(c(Cl)c3)Oc3cc2cc(c3OC2OC(CSc3nccc(N)n3)C(O)C(O)C2OC2CC(C)(N)C(O)C(C)O2)Oc2ccc(cc2Cl)[C@H]1O (stereo partly shown) [LXI, Glucose-C6-2-thio-4-aminopyrimidine Vancomycin] |  |  |  |  |  |  |  | 0.63 (≈ 0.404 µM) |  |  |  |  | 0.63 (≈ 0.404 µM) |  | 3.2 (≈ 2.05 µM) | 0.63 (≈ 0.404 µM) | 1.3 (≈ 0.834 µM) | 0.63 (≈ 0.404 µM) | > 50
CN[C@@H](CC(C)C)C(=O)N[C@H]1C(=O)N[C@@H](CC(N)=O)C(=O)N[C@H]2C(=O)NC3C(=O)N[C@H](C(=O)N[C@@H](C(=O)O)c4cc(O)cc(O)c4-c4cc3ccc4O)[C@H](O)c3ccc(c(Cl)c3)Oc3cc2cc(c3OC2OC(CSc3nc(N)cc(N)n3)C(O)C(O)C2OC2CC(C)(N)C(O)C(C)O2)Oc2ccc(cc2Cl)[C@H]1O (stereo partly shown) [LXII, Glucose-C6-6-thio-2,4-diaminopyrimidine Vancomycin] |  |  |  |  |  |  |  | 1.3 (≈ 0.826 µM) |  |  |  |  | 0.63 (≈ 0.4 µM) |  | 6.3 (≈ 4 µM) | 1.3 (≈ 0.826 µM) | 2.5 (≈ 1.59 µM) | 1.9 (≈ 1.21 µM) | > 50
